Measurements as given in patent publication US11931403B2, “Compositions, systems, and methods for treating or reducing hypoxia-ischemia induced brain damage and neurobehavioral dysfunction in neonates” (UNIVERSITY OF MISSISSIPPI MEDICAL CENTER, priority 2019, dated 2024).

Assays:
[1] = tested on: neonatal piglet model of HI; details: bolus injection followed by continuous infusion, continued during HI exposure; cited from earlier work
neonatal pig model of HI = details: IV, to prevent hyperglycemia during glucose infusion before HI injury; cited from earlier work
[2] = design: species or system Sprague-Dawley rats; details: rat, in vivo
Experimental: Another set of animals were prepared for ELISA study. […] Total proteins were extracted using protein lysis buffer (Invitrogen).
Ex vivo whole brain and spinal cord imaging using live imaging devices (IVIS Spectrum imaging system) was performed to provide an accurate picture of the overall bio-distribution of fluorescent labeling insulin. […] To accurately assess bio-distribution of intranasal insulin, all tissues of interest were analyzed by ELISA.

## regular insulin: regular insulin bolus and infusion to induce moderate hypoglycemia in a neonatal piglet HI model
[1]
  Brain injury with insulin-induced hypoglycemia: not able to ameliorate brain injury

## regular porcine insulin: IV regular porcine insulin used by LeBlanc et al. in a neonatal pig model of HI
Neonatal pig model of HI
  Outcome of piglets in the insulin group: fared slightly better

## Alexa 546-labeled insulin: fluorescent Alexa 546-labeled insulin (Nanocs Inc) used to study distribution in brain after intranasal application
[2]
  Delivery to the central nervous system (fluorescence imaging): delivered to the central nervous system at 15 minutes
